Results published in patent publication US20090170845A1, “USE OF IMIDAZO[2,1-b]-1,3,4-THIADIAZOLE-2-SULFONAMIDE COMPOUNDS TO TREAT NEUROPATHIC PAIN” (AEGERA THERAPEUTICS INC., priority 2006, published 2009).

Key:
Format in all cases: in vivo, rat
diabetic rats = experiment: Tactile allodynia (von Frey) in diabetic rats (DN); conditions: for established neuropathic pain state in diabetic rats: Study 2, 10 mg/kg sc for 14 consecutive days; for neuropathic pain in diabetic rats: subcutaneous and/or oral delivery routes
Experimental: The effects of compounds 150, 155, 157 and 158 on neuropathic pain responses characterized by tactile allodynia in diabetic rats were examined. A blinded reversal interventional paradigm was applied to evaluate the compounds, with therapy initiated when an aberrant pain state was clearly established. The effects of single or repeat (5 or two days per week) dosing regimen were assessed as described.
Rats (female Sprague Dawley; 250-270 g) were rendered diabetic with the commercially available agent streptozotocin and, were compared to vehicle-treated age matched controls, maintained for up to 6 weeks or more. Standard physiologic parameters (body weight and blood glucose) were recorded before, during and after the study to assess the metabolic status of animals.
Study 1: Both normal and diabetic groups were divided into two groups of 12 and received either vehicle or Compound 150 in 20% HPCD (10 mg/kg, sc) 5 days per week, for two weeks. Standard indices of sensory nerve function (tactile response threshold) were measured at baseline, prior to drug treatments, 48 hours after the 5th dose, and again prior to sacrifice (after the 10th dose) along with the standard physiologic parameters of body weight and plasma glucose.
Study 2: As per Study 1, except animals were treated with either compound 157 or 158 in 20% HPCD (10 mg/kg, sc) for 14 consecutive days.
Study 3: After 1 month of diabetes rats were treated subcutaneously with a single administration of 150, 155, 157, 154, 158 or 160 in 20% HPCD, as indicated; orally by gavage with a single administration of 157, or for 5 consecutive days by oral gavage with 157 and 158 to assess cumulative effects. The effect of the compounds was assessed 6 hours after the single or final administration.
Detailed methods for performing the behavioral tasks can be found in Journal of Neuroscience Methods (1994), 53: 55-63 and Methods in Molecular Medicine, Volume 99: Pain Research: methods and protocols, edited by Z. D. Luo, Humana Press Inc., Totowa, N.J.

[1] = system: Complete Freund's Adjuvant (CFA) model of hyperalgesia in rats; experiment: CFA-induced tactile hyperalgesia in rats; conditions: for activity in CFA model of hyperalgesia: subcutaneous and/or oral delivery
Description: Complete Freund's Adjuvant (CFA) was used to induce an inflammatory response, resulting in hyperalgesia. This model was chosen as a second experimental paradigm to obtain direct evidence for activity of the compounds against pain states because of its link with the induction of aberrant JNK phosphorylation, and evidence that this signaling cascade appears to, at least in part, mediate the pain response in this model (Doya et al., 2005).
Female Sprague Dawley rats were given either vehicle or Compound 150 (10 mg/kg, sc), 155 (1-10 mg/kg, sc), 157 (1-10 mg/kg, sc; 10-40 mg/kg, po) or 158 (10 mg/kg, sc) 6 hours prior to pain testing (compounds 150, 155, 157, and 158 were dissolved in 20% HPCD at 1-10 mg/mL). Compound 157 was also tested under conditions of repeat dosing where it was given at 5-20 mg/kg, po for five consecutive days. Under all treatment conditions, a single injection of CFA (50 uL) was given into the plantar surface of the right hind paw 1 hour prior to pain testing (i.e., 5 hours after the final administration of compound). Immediately after the CFA injection, animals were placed in testing chambers with a wire mesh bottom to habituate. Standard von Frey filaments were used to assess tactile response thresholds. The left, un-injected paw served as a control. Fibers were applied in the manner described by Dixon (1980) using the up-down method. The 50% withdrawal threshold (in grams) was determined for each paw.

[2] = system: STZ treated diabetic rats; experiment: Motor nerve conduction velocity (MNCV) in STZ diabetic rats, reversal paradigm, 2 months treatment
Description: (§1) The effects of Compound 150 on nerve conduction (both motor and sensory) and axonal atrophy were examined in diabetic rats. A blinded reversal interventional paradigm was applied to evaluate two related small molecules on established experimental rat diabetic peripheral neuropathy of 2 months duration given over a subsequent 2 months, specifically evaluating motor and sensory conduction and sural axon caliber.
(§2) Male Sprague-Dawley rats (200-300 g) raised on sawdust covered plastic cages in a room with normal light dark timing and fed with standard rat chow were used for this experiment. The protocol was reviewed and approved by the University of Calgary Animal Care Committee adhering to the guidelines of the Canadian Council on Animal Care (CCAC). Diabetes was induced by a single intraperitoneal injection of streptozotocin (STZ) in citrate buffer (65 mg/kg) with age-matched controls given the buffer without STZ. Animals were used for the study if fasting glucose levels 5-7 days later were ≧16.0 mmol/L (One Touch FasTake strips, Johnson and Johnson).
(§3) Treatments were applied after 2 months of hyperglycemia for a duration of 2 months. Motor conduction recordings (1-3) were made prior to intervention then after […]. Sensory conduction utilized the approach of Parry and Kozu involving stimulation of the digital branches of the sciatic nerve and recording from the sciatic nerve at the level of the popliteal fossa with near nerve temperature maintained at 37° C. (4).
(§4) For statistical analysis, we studied mean values with standard errors of the means and compared values in the interventional groups with one way ANOVA or repeated measures ANOVA and post hoc Student's t-tests.

[3] = system: STZ treated diabetic rats; experiment: Sural nerve myelinated axon morphometry in STZ diabetic rats; conditions: 5 of 7 days, 2 months of treatment
Experimental: as §2
At endpoint (4 months of diabetes, 2 months of treatment) the rats were euthanized and sural nerves harvested for morphometric studies. Sural nerves were fixed in cacodylate buffered glutaraldehyde, dehydrated with alcohols, fixed in osmium tetroxide then embedded in epon to generate one micron sections, as in previous work (5,6). Sections were photographed under oil immersion (1000×) to sample the entire sural nerve. Images were analyzed using Scion image offline to measure axon area for 100 myelinated axons for each sural nerve fascicle. […] For sural nerves with more than one fascicle, each fascicle underwent separate analysis and a mean axon area was calculated for the rat from the fascicles. […]

[4] = system: STZ treated diabetic rats; experiment: Sensory nerve conduction velocity (SNCV) in STZ diabetic rats, reversal paradigm, 2 months treatment
Description: as §1, §2, §3, §4

[5] = po, 5 d loading (5 consecutive days)
[6] = po, 5 d loading (repeated dosing)
[7] = sc, acute single, 6 hours after administration

Compound	established neuropathic pain state in diabetic rats (diabetic rats)	DN (effect on tactile allodynia in diabetic rats) (diabetic rats; [5])	DN, effective dose (diabetic rats; [6])	DN, effective dose (diabetic rats; sc, acute single)	DN (effect on tactile allodynia in diabetic rats) (diabetic rats; [7])	neuropathic pain in diabetic rats (diabetic rats)	CFA (effect on tactile hyperalgesia) ([1]; sc, acute single)	activity in CFA model of hyperalgesia [1]	also measured
COCCOCCOc1ccc(-c2cn3nc(S(=O)(=O)[N-][Na+])sc3n2)cc1 [Compound 157]	reversed an established neuropathic pain state	equivalent efficacy was observed and +ve	5 to 10 mg/kg	<10 mg/kg	Effects of single administrations were observed	can reverse neuropathic pain	attenuated CFA-induced tactile hyperalgesia and +ve	active	duration of effect on pain after a single administration (diabetic rats; diabetic rats, single administration): 24 h; DN, effective dose (diabetic rats; po, 5 d loading): 5 to 10 mg; DN, effective dose (diabetic rats; po, acute single): 10 to 20 mg/kg; DN (effect on tactile allodynia in diabetic rats) (diabetic rats; po, acute single, 6 hours after administration): Effects of single administrations were observed and +ve; CFA (effect on tactile hyperalgesia) ([1]; po, 5 d loading): +ve; CFA, effective dose ([1]; po, 5 d loading): 5 to 10 mg; CFA (effect on tactile hyperalgesia) ([1]; po, acute single): efficacious and +ve; CFA, effective dose ([1]; po, acute single): 20 to 40 mg/kg; CFA, required dose range ([1]; po, daily dosing for 5 consecutive days): 5 to 10 mg/kg
O=S(=O)([N-][Na+])c1nn2cc(-c3ccc(Cl)c(Cl)c3Cl)nc2s1 [Compound 154]					Effects of single administrations were observed and +ve	can reverse neuropathic pain			
CC(C)(C)c1ccc(-c2cn3nc(S(=O)(=O)[N-][Na+])sc3n2)cc1 [Compound 158]	reversed an established neuropathic pain state	equivalent efficacy was observed and +ve	5 to 10 mg/kg	≤ 10 mg/kg	Effects of single administrations were observed and +ve	can reverse neuropathic pain	attenuated CFA-induced tactile hyperalgesia and +ve	active	CFA, effective dose ([1]; sc, acute single): ≤ 10 mg/kg
O=S(=O)([N-][Na+])c1nn2cc(-c3ccc4c(c3)OCCCO4)nc2s1 [Compound 155]				≤ 10 mg/kg	Effects of single administrations were observed and +ve	can reverse neuropathic pain	attenuated CFA-induced tactile hyperalgesia and +ve	active	
O=S(=O)([N-][Na+])c1nn2cc(-c3cc(C(F)(F)F)ccc3Cl)nc2s1 [Compound 160]				10 mg/kg	Effects of single administrations were observed and +ve	can reverse neuropathic pain			
O=S(=O)([N-][Na+])c1nn2cc(-c3ccc(-c4cccc(C(F)(F)F)c4)cc3)nc2s1 [Compound 150]				10 mg/kg	Effects of single administrations were observed and +ve		attenuated CFA-induced tactile hyperalgesia and +ve	active	response to tactile stimulation with multiple dosing (diabetic rats; Study 1, diabetic rats, 10 mg/kg sc 5 days per week for two weeks): consistently responding within the normal range; tactile allodynia six hours after the initial treatment (diabetic rats; Study 1, diabetic rats, 10 mg/kg sc in 20% HPCD): tactile allodynia was reversed; MNCV v vehicle treated diabetics at 2 months ([2]; 2×/week): significantly better than vehicle treated diabetics; MNCV change from baseline to 2 months (within diabetic groups) ([2]; 2 days per week): identical effects as the drug given 5 days per week; MNCV, diabetics v normals ([2]; 2 days per week): did not restore MNCV to normal; MNCV change from baseline to 2 months (within diabetic groups) ([2]; 5 days per week): significant improvement in MNCV; MNCV v vehicle treated diabetics at 2 months ([2]; 5 days per week): significantly better than vehicle treated diabetics; MNCV, diabetics v normals ([2]; 5 days per week): did not restore MNCV to normal; mean area of all measured sural myelinated axons, diabetics given compound vs. vehicle [3]: rise in mean axonal area; mean axonal area of large (greater than 9 microns squared) myelinated axons, diabetics given compound vs. vehicle [3]: significant increase in mean axonal area; SNCV v vehicle treated diabetics at 2 months ([4]; 5 days/week): significantly better than vehicle treated diabetics; SNCV change from baseline to 2 months (within diabetic groups) ([4]; diabetic rats, 2 months of treatment): did not significantly change from baseline; SNCV, diabetics v normals after 2 months of treatment ([4]; dosed 2 days per week): did not confer similar protection; SNCV, diabetics v normals after 2 months of treatment ([4]; dosed 5 days per week): not significantly different from normals; SNCV v vehicle treated diabetics at 2 months ([4]; twice per week): did not afford similar protection
